Consider eleven compounds from PubChem BioAssay (NCI).

Test systems include UO-31 renal; RPMI-8226 leukemia; KM12 colon; COLO 205 colon; MDA-MB-231 breast; NCI-H460 lung; HCC-2998 colon; IGROV1 ovarian; SN12C renal; HL-60(TB) leukemia.
What all share (assay): NCI-60 cell line screen, 48 h

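Exposure lasted 48 hours, with cells grown in 96-well plates and compounds tested at five concentrations. Abbreviation: GI50, concentration required for 50% inhibition of growth. Definition used: TGI = concentration required for complete inhibition of growth.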

As to `C=C1C(=O)O[C@H]2[C@H]1CC/C(COC(=O)N[C@H](Cc1c[nH]c3ccccc13)C(=O)OC)=C\CC[C@@]1(C)O[C@@H]21`, the GI50 with UO-31 renal is 1.49 µM; with RPMI-8226 leukemia, 2.02 µM; with KM12 colon, 11.8 µM; in the experiment on COLO 205 colon, 1.81 µM; in the experiment with MDA-MB-231 breast, 2 µM; in the experiment on NCI-H460 lung, 5.79 µM. In addition, the GI50 in the experiment with HCC-2998 colon is 2.25 µM; in the experiment on IGROV1 ovarian, 1.85 µM; in the experiment on SN12C renal, 2.08 µM. The TGI in the experiment with UO-31 renal came out at 2.84 µM; in the experiment with RPMI-8226 leukemia, 5.83 µM; in the experiment with KM12 colon, 28.6 µM; with COLO 205 colon, 3.76 µM; in the experiment with MDA-MB-231 breast it was 5.59 µM; in the experiment on NCI-H460 lung, 21.2 µM. Besides, the TGI in the experiment with HCC-2998 colon amounted to 4.6 µM; in the experiment on IGROV1 ovarian, 5.35 µM; in the experiment on SN12C renal it was 5.69 µM.
Consider `CCCCNCCCCCNc1cc(OC)cc2cccnc12`, for which the GI50 in the experiment with UO-31 renal was 13.4 µM; in the experiment on RPMI-8226 leukemia it was 15.5 µM; in the experiment on KM12 colon, 39.3 µM; in the experiment on COLO 205 colon, 17.2 µM; in the experiment with MDA-MB-231 breast it was 23.2 µM; in the experiment with NCI-H460 lung it was 89.4 µM. Moreover, the GI50 was 3.1 µM in the experiment on HCC-2998 colon, 14.6 µM with IGROV1 ovarian and 36.5 µM with SN12C renal. For the same compound, the TGI was 27.2 µM in the experiment on UO-31 renal; 39.8 µM with RPMI-8226 leukemia; greater than 100 µM in the experiment with KM12 colon; 33.8 µM in the experiment with COLO 205 colon; 50.8 µM in the experiment on MDA-MB-231 breast; greater than 100 µM in the experiment with NCI-H460 lung. Also, the TGI in the experiment on HCC-2998 colon was 16.4 µM; in the experiment on IGROV1 ovarian it was 29.1 µM; in the experiment on SN12C renal, greater than 100 µM.
Take `CN(C)CCNC(=O)c1cccc2c1nc(-c1ccncc1)c1ccccc12`: the TGI is 6.08 µM in the experiment with UO-31 renal; greater than 100 µM in the experiment with HL-60(TB) leukemia; 25.6 µM in the experiment on KM12 colon; 9.66 µM in the experiment with COLO 205 colon; 3.05 µM in the experiment on NCI-H460 lung; 16.7 µM with HCC-2998 colon. The TGI was determined as 20.1 µM in the experiment on IGROV1 ovarian and 14.8 µM in the experiment with SN12C renal.
`CC[P+]1(c2ccccc2)CCCCC1`: the TGI in the experiment with UO-31 renal, in the experiment on HL-60(TB) leukemia, in the experiment with RPMI-8226 leukemia, with KM12 colon, in the experiment on COLO 205 colon and in the experiment on NCI-H460 lung was greater than 100 µM throughout. Further, the TGI in the experiment on HCC-2998 colon, with IGROV1 ovarian and with SN12C renal was greater than 100 µM each time.
Regarding `COc1ccc(C(Nc2ccccn2)c2cc(C(C)(C)C)cc(C(C)(C)C)c2O)cc1` (centres undefined), the TGI in the experiment on UO-31 renal was greater than 100 µM; in the experiment on RPMI-8226 leukemia it was greater than 100 µM; in the experiment with KM12 colon it was 63.8 µM; with COLO 205 colon, 50 µM; in the experiment with MDA-MB-231 breast, greater than 100 µM; in the experiment on NCI-H460 lung it was 55.7 µM. Also, the TGI was 38.7 µM in the experiment with HCC-2998 colon, greater than 100 µM in the experiment on IGROV1 ovarian and greater than 100 µM in the experiment on SN12C renal.
As to `O=C(OCc1ccccc1)n1cccc1`, the TGI with UO-31 renal, in the experiment on HL-60(TB) leukemia, with RPMI-8226 leukemia, in the experiment on KM12 colon, with COLO 205 colon and in the experiment with NCI-H460 lung was greater than 100 µM in each case. The TGI with HCC-2998 colon, with IGROV1 ovarian and in the experiment on SN12C renal was greater than 100 µM throughout.
Regarding `C=C1C(O)C2CC(C)(C)C(=O)C2=C(CC(C)C)C12CC2` (centres undefined), the GI50 in the experiment on UO-31 renal is greater than 100 µM; with RPMI-8226 leukemia it was 36 µM; in the experiment with KM12 colon, greater than 100 µM; with COLO 205 colon it was greater than 100 µM; in the experiment on MDA-MB-231 breast, greater than 100 µM; with NCI-H460 lung, greater than 100 µM. For the same compound, the GI50 in the experiment on HCC-2998 colon was greater than 100 µM; in the experiment with IGROV1 ovarian, 55.6 µM; in the experiment on SN12C renal, greater than 100 µM. Further, the TGI in the experiment with UO-31 renal, in the experiment on RPMI-8226 leukemia, in the experiment on KM12 colon, with COLO 205 colon, in the experiment with MDA-MB-231 breast and in the experiment on NCI-H460 lung was greater than 100 µM throughout. Also, the TGI in the experiment on HCC-2998 colon, in the experiment with IGROV1 ovarian and in the experiment with SN12C renal was greater than 100 µM throughout.
As for `N/C(=N/S(=O)(=O)c1cc(C(=O)Nc2ccc(F)cc2)c(Cl)cc1SCc1ccccc1)Nc1ccccc1O`, the GI50 in the experiment with UO-31 renal is 17.3 µM; with RPMI-8226 leukemia, 2.61 µM; in the experiment with KM12 colon, 1.79 µM; with COLO 205 colon, 4.1 µM; in the experiment on MDA-MB-231 breast, 1.54 µM; in the experiment with NCI-H460 lung, 2.93 µM. The results for the GI50 with HCC-2998 colon, in the experiment with IGROV1 ovarian and with SN12C renal were 2.86 µM, 1.88 µM and 1.88 µM, respectively. Moreover, the TGI in the experiment with UO-31 renal was 37.4 µM; in the experiment with RPMI-8226 leukemia it was 6.1 µM; in the experiment with KM12 colon, 3.33 µM; in the experiment on COLO 205 colon it was greater than 100 µM; with MDA-MB-231 breast, 3.1 µM; in the experiment with NCI-H460 lung, 8.29 µM. Besides, the values for the TGI with HCC-2998 colon, in the experiment with IGROV1 ovarian and with SN12C renal were 7.34 µM, 3.57 µM and 3.7 µM, respectively.
For the compound `O=C(O)c1cc(Cl)cc(Cc2cc(Cl)cc(C(=O)O)c2O)c1O`, the TGI in the experiment with UO-31 renal, in the experiment on RPMI-8226 leukemia, in the experiment on KM12 colon, with COLO 205 colon, in the experiment with MDA-MB-231 breast and with NCI-H460 lung was greater than 100 µM each time. In addition, the TGI in the experiment on IGROV1 ovarian and in the experiment with SN12C renal was greater than 100 µM each time.
Take `CC(=O)c1ccc(Oc2c3ccccc3nc3occc23)cc1`: the GI50 is 60.5 µM in the experiment on UO-31 renal; 8.43 µM with HL-60(TB) leukemia; 4.63 µM with RPMI-8226 leukemia; 9.12 µM in the experiment with KM12 colon; 24.1 µM in the experiment with COLO 205 colon; 23.3 µM in the experiment with NCI-H460 lung. The GI50 with HCC-2998 colon was 6.35 µM; in the experiment on IGROV1 ovarian, 55.7 µM. Besides, the TGI in the experiment with UO-31 renal, in the experiment with HL-60(TB) leukemia, with RPMI-8226 leukemia, in the experiment on KM12 colon, in the experiment with COLO 205 colon and in the experiment with NCI-H460 lung was greater than 100 µM in each case. The TGI in the experiment with HCC-2998 colon was 34 µM; with IGROV1 ovarian, greater than 100 µM.
On to `O=C1CCc2ccc(O)c(c2)Oc2ccc(cc2)[C@@H]2O[C@@H]2CO1`, for which the TGI in the experiment with UO-31 renal, in the experiment on HL-60(TB) leukemia, in the experiment on RPMI-8226 leukemia, in the experiment with KM12 colon, in the experiment on COLO 205 colon and with HCC-2998 colon was greater than 100 µM throughout. The TGI in the experiment with IGROV1 ovarian is 50.5 µM; in the experiment on SN12C renal it was greater than 100 µM.
